The source of these data is BindingDB's records for doi:10.1016/j.ejmech.2009.09.045 (Sri Venkateswara University, 2010).

For the experiment, the target named is T1, Catalase (Rattus norvegicus, UniProt P04762).
T1 sequence (P04762 whole entry): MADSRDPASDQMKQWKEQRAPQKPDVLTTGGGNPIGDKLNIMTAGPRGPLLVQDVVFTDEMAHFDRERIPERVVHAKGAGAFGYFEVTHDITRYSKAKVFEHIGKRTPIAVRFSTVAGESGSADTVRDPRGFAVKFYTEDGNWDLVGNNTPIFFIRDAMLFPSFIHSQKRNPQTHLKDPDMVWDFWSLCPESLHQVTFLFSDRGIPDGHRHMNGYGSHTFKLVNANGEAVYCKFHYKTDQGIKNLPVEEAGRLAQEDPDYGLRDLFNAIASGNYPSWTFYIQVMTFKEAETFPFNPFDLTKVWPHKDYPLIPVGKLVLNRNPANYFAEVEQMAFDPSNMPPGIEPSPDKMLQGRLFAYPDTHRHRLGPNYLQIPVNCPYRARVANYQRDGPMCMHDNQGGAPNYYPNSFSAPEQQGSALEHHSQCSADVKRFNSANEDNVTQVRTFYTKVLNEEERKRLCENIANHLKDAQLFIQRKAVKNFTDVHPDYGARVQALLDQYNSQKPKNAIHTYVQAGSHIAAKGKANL
Nature of the experiment: Inhibition of catalase in Wistar rat brain.
With `COc1ccc2c3c1O[C@H]1C[C@@H](OP(=O)(OCCO)N(CCCl)CCCl)C=C[C@@]31CCN(C)C2` (some centres not stated), the EC50 (usually the concentration at which the effect is half-maximal) came to 4.12 µM.
`COc1ccc2c3c1O[C@H]1C[C@@H](OP(=O)(NCCO)N(CCCl)CCCl)C=C[C@@]31CCN(C)C2` (some centres not stated) yielded an EC50 of 2.84 µM.
In turn, `COc1ccc2c3c1O[C@H]1C[C@@H](OP(=O)(SCCO)N(CCCl)CCCl)C=C[C@@]31CCN(C)C2` (some centres not stated) showed an EC50 of 3.02 µM. This EC50 and that of the compound before are within 1.5-fold of each other.
For the compound `COc1ccc2c3c1O[C@H]1C[C@@H](OP(=O)(NCCN)N(CCCl)CCCl)C=C[C@@]31CCN(C)C2` (some centres not stated), the EC50 worked out at 5.11 µM.
As to `COc1ccc2c3c1O[C@H]1C[C@@H](OP(=O)(NCCO)Oc4ccc([N+](=O)[O-])cc4)C=C[C@@]31CCN(C)C2` (some centres not stated), the EC50 came out at 9.29 µM.
In turn, `COc1ccc2c3c1O[C@H]1C[C@@H](OP(=O)(NCCN)Oc4ccc([N+](=O)[O-])cc4)C=C[C@@]31CCN(C)C2` (some centres not stated) came in with an EC50 of 3.41 µM.
For the compound `COc1ccc2c3c1O[C@H]1C[C@@H](OP(=O)(OCCO)Oc4ccc([N+](=O)[O-])cc4)C=C[C@@]31CCN(C)C2` (some centres not stated), the EC50 worked out at 6.15 µM.
Take `COc1ccc2c3c1O[C@H]1C[C@@H](OP(=O)(OP(=O)(O)O)N(CCCl)CCCl)C=C[C@@]31CCN(C)C2` (some centres not stated): the EC50 worked out at 3.81 µM.
To `COc1ccc2c3c1O[C@H]1C[C@@H](OP(=O)(Oc4ccc([N+](=O)[O-])cc4)SCCO)C=C[C@@]31CCN(C)C2` (some centres not stated) belongs 7.74 µM.
`COc1ccc2c3c1O[C@H]1C[C@@H](OP(=O)(Oc4ccc([N+](=O)[O-])cc4)OP(=O)(O)O)C=C[C@@]31CCN(C)C2` (some centres not stated) displayed an EC50 of 5.13 µM.
For the compound `Cc1c(C)c2c(c(C)c1O)CC[C@@](C)(CCC[C@H](C)CCC[C@H](C)CCCC(C)C)O2` [CHEBI:18145], the EC50 worked out at 3.43 µM.
For `COc1ccc2c3c1O[C@H]1C[C@@H](O)C=C[C@@]31CCN(C)C2` [galantamine], the EC50 stood at 17.6 µM.
